Laboratory results reported in patent US12435044B2, “Pyridazinone herbicides and pyridazinone intermediates used to prepare a herbicide” (FMC Corporation, priority 2018, dated 2025).

Key:
Test in all cases: Test C pre-/postemergence greenhouse test
Format in all cases: in vivo
Settings in all cases: scale 0 to 100
[1] = system: oilseed rape (Brassica napus)
In short: (§1)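 Test chemicals were formulated in a non-phytotoxic solvent mixture with surfactant and applied preemergence to seeds in silt loam soil or postemergence to plants of 2 to 18 cm in a peat/vermiculite medium. After 13 to 21 d in a greenhouse, response was visually scored from 0 (no effect) to 100 (complete control).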

[2] = system: velvetleaf (Abutilon theophrasti)
In short: as §1

[3] = system: ryegrass, Italian (Lolium multiflorum)
In short: as §1

[4] = system: wheat, winter (winter wheat, Triticum aestivum)
In short: as §1

[5] = system: crabgrass, large (Digitaria sanguinalis)
In short: as §1

[6] = system: ragweed (common ragweed, Ambrosia elatior)
In short: as §1

[7] = system: foxtail, giant (Setaria faberii)
In short: as §1

soybean (Glycine max) = system: soybean (Glycine max)
In short: as §1

[8] = system: windgrass (Apera spica-venti)
In short: as §1

[9] = system: poinsettia, wild (Euphorbia heterophylla)
In short: as §1

[10] = system: blackgrass (Alopecurus myosuroides)
In short: as §1

[11] = system: lambsquarters (Chenopodium album)
In short: as §1

[12] = system: morningglory (Ipomoea coccinea)
In short: as §1

Cc1ccc2ccc(Cl)cc2c1-c1c(O)c(Cl)nn(C)c1=O [Cpd. No. 22]
40: Plant response rating, Poinsettia, Wild ([9]; Postemergence, 62 g ai/ha)
35: Plant response rating, Poinsettia, Wild ([9]; Postemergence, 125 g ai/ha) | Plant response rating, Poinsettia, Wild ([9]; Preemergence, 125 g ai/ha) | Plant response rating, Morningglory ([12]; Preemergence, 31 g ai/ha)
98: Plant response rating, Ryegrass, Italian ([3]; Preemergence, 62 g ai/ha) | Plant response rating, Foxtail, Giant ([7]; Postemergence, 125 g ai/ha)
95: Plant response rating, Oilseed Rape ([1]; Postemergence, 62 g ai/ha) | Plant response rating, Ryegrass, Italian ([3]; Postemergence, 62 g ai/ha) | Plant response rating, Wheat ([4]; Postemergence, 125 g ai/ha) | Plant response rating, Wheat ([4]; Preemergence, 62 g ai/ha) | Plant response rating, Ragweed ([6]; Postemergence, 31 g ai/ha) | Plant response rating, Foxtail, Giant ([7]; Postemergence, 62 g ai/ha)
100: Plant response rating, Oilseed Rape ([1]; Postemergence, 125 g ai/ha) | Plant response rating, Oilseed Rape ([1]; Preemergence, 62 g ai/ha) | Plant response rating, Oilseed Rape ([1]; Preemergence, 125 g ai/ha) | Plant response rating, Ryegrass, Italian ([3]; Postemergence, 125 g ai/ha) | Plant response rating, Wheat ([4]; Preemergence, 125 g ai/ha) | Plant response rating, Ragweed ([6]; Postemergence, 62 g ai/ha) | Plant response rating, Ragweed ([6]; Postemergence, 125 g ai/ha) | Plant response rating, Ragweed ([6]; Preemergence, 125 g ai/ha) | Plant response rating, Foxtail, Giant ([7]; Preemergence, 62 g ai/ha) | Plant response rating, Foxtail, Giant ([7]; Preemergence, 125 g ai/ha) | Plant response rating, Windgrass ([8]; Postemergence, 62 g ai/ha) | Plant response rating, Windgrass ([8]; Postemergence, 125 g ai/ha) | Plant response rating, Windgrass ([8]; Preemergence, 125 g ai/ha) | Plant response rating, Blackgrass ([10]; Postemergence, 125 g ai/ha) | Plant response rating, Lambsquarters ([11]; Postemergence, 62 g ai/ha) | Plant response rating, Lambsquarters ([11]; Preemergence, 125 g ai/ha) | Plant response rating, Morningglory ([12]; Postemergence, 31 g ai/ha) | Plant response rating, Morningglory ([12]; Postemergence, 62 g ai/ha) | Plant response rating, Morningglory ([12]; Postemergence, 125 g ai/ha)
20: Plant response rating, Soybean (soybean (Glycine max); Postemergence, 62 g ai/ha)
80: Plant response rating, Velvetleaf ([2]; Postemergence, 62 g ai/ha) | Plant response rating, Velvetleaf ([2]; Preemergence, 125 g ai/ha) | Plant response rating, Foxtail, Giant ([7]; Preemergence, 31 g ai/ha) | Plant response rating, Windgrass ([8]; Preemergence, 31 g ai/ha) | Plant response rating, Lambsquarters ([11]; Postemergence, 16 g ai/ha)
0: Plant response rating, Oilseed Rape ([1]; Preemergence, 31 g ai/ha) | Plant response rating, Oilseed Rape ([1]; Preemergence, 61 g ai/ha) | Plant response rating, Foxtail, Giant ([7]; Preemergence, 61 g ai/ha) | Plant response rating, Soybean (soybean (Glycine max); Preemergence, 61 g ai/ha) | Plant response rating, Soybean (soybean (Glycine max); Preemergence, 62 g ai/ha) | Plant response rating, Windgrass ([8]; Preemergence, 61 g ai/ha)
90: Plant response rating, Oilseed Rape ([1]; Postemergence, 31 g ai/ha) | Plant response rating, Velvetleaf ([2]; Preemergence, 62 g ai/ha) | Plant response rating, Ryegrass, Italian ([3]; Preemergence, 125 g ai/ha) | Plant response rating, Wheat ([4]; Postemergence, 31 g ai/ha) | Plant response rating, Wheat ([4]; Postemergence, 62 g ai/ha) | Plant response rating, Ragweed ([6]; Postemergence, 16 g ai/ha) | Plant response rating, Ragweed ([6]; Preemergence, 62 g ai/ha) | Plant response rating, Foxtail, Giant ([7]; Postemergence, 31 g ai/ha) | Plant response rating, Blackgrass ([10]; Postemergence, 62 g ai/ha) | Plant response rating, Lambsquarters ([11]; Preemergence, 62 g ai/ha)
5: Plant response rating, Ryegrass, Italian ([3]; Preemergence, 61 g ai/ha) | Plant response rating, Crabgrass, Large ([5]; Preemergence, 61 g ai/ha) | Plant response rating, Soybean (soybean (Glycine max); Postemergence, 16 g ai/ha) | Plant response rating, Soybean (soybean (Glycine max); Preemergence, 31 g ai/ha) | Plant response rating, Poinsettia, Wild ([9]; Preemergence, 31 g ai/ha) | Plant response rating, Poinsettia, Wild ([9]; Preemergence, 61 g ai/ha) | Plant response rating, Blackgrass ([10]; Preemergence, 61 g ai/ha)
55: Plant response rating, Velvetleaf ([2]; Postemergence, 16 g ai/ha)
25: Plant response rating, Ryegrass, Italian ([3]; Preemergence, 31 g ai/ha) | Plant response rating, Crabgrass, Large ([5]; Postemergence, 31 g ai/ha) | Plant response rating, Crabgrass, Large ([5]; Preemergence, 31 g ai/ha) | Plant response rating, Soybean (soybean (Glycine max); Postemergence, 125 g ai/ha) | Plant response rating, Poinsettia, Wild ([9]; Postemergence, 16 g ai/ha) | Plant response rating, Poinsettia, Wild ([9]; Postemergence, 31 g ai/ha) | Plant response rating, Blackgrass ([10]; Preemergence, 31 g ai/ha) | Plant response rating, Morningglory ([12]; Preemergence, 61 g ai/ha)
30: Plant response rating, Soybean (soybean (Glycine max); Preemergence, 125 g ai/ha) | Plant response rating, Blackgrass ([10]; Preemergence, 62 g ai/ha)
60: Plant response rating, Velvetleaf ([2]; Postemergence, 31 g ai/ha) | Plant response rating, Velvetleaf ([2]; Preemergence, 31 g ai/ha) | Plant response rating, Wheat ([4]; Preemergence, 61 g ai/ha) | Plant response rating, Crabgrass, Large ([5]; Postemergence, 125 g ai/ha) | Plant response rating, Ragweed ([6]; Preemergence, 31 g ai/ha) | Plant response rating, Ragweed ([6]; Preemergence, 61 g ai/ha)
75: Plant response rating, Crabgrass, Large ([5]; Preemergence, 62 g ai/ha) | Plant response rating, Lambsquarters ([11]; Preemergence, 31 g ai/ha)
10: Plant response rating, Velvetleaf ([2]; Preemergence, 61 g ai/ha) | Plant response rating, Crabgrass, Large ([5]; Postemergence, 16 g ai/ha) | Plant response rating, Soybean (soybean (Glycine max); Postemergence, 31 g ai/ha) | Plant response rating, Poinsettia, Wild ([9]; Preemergence, 62 g ai/ha)
85: Plant response rating, Oilseed Rape ([1]; Postemergence, 16 g ai/ha) | Plant response rating, Velvetleaf ([2]; Postemergence, 125 g ai/ha) | Plant response rating, Ryegrass, Italian ([3]; Postemergence, 31 g ai/ha) | Plant response rating, Wheat ([4]; Postemergence, 16 g ai/ha) | Plant response rating, Wheat ([4]; Preemergence, 31 g ai/ha) | Plant response rating, Crabgrass, Large ([5]; Preemergence, 125 g ai/ha) | Plant response rating, Foxtail, Giant ([7]; Postemergence, 16 g ai/ha) | Plant response rating, Windgrass ([8]; Postemergence, 16 g ai/ha) | Plant response rating, Windgrass ([8]; Postemergence, 31 g ai/ha) | Plant response rating, Windgrass ([8]; Preemergence, 62 g ai/ha) | Plant response rating, Blackgrass ([10]; Postemergence, 31 g ai/ha) | Plant response rating, Blackgrass ([10]; Preemergence, 125 g ai/ha) | Plant response rating, Lambsquarters ([11]; Postemergence, 31 g ai/ha) | Plant response rating, Lambsquarters ([11]; Postemergence, 125 g ai/ha) | Plant response rating, Morningglory ([12]; Postemergence, 16 g ai/ha) | Plant response rating, Morningglory ([12]; Preemergence, 125 g ai/ha)
15: Plant response rating, Crabgrass, Large ([5]; Postemergence, 62 g ai/ha)
70: Plant response rating, Ryegrass, Italian ([3]; Postemergence, 16 g ai/ha) | Plant response rating, Blackgrass ([10]; Postemergence, 16 g ai/ha) | Plant response rating, Lambsquarters ([11]; Preemergence, 61 g ai/ha)
